Assay results as given in patent publication US4791215A, “Derivatives of glutamic acid and aspartic acid” (priority 1984, dated 1988).

Assays:
[1] = tested on: morphine analgesia; assay: Increase in analgesia of morphine, Tail Flick Test (Experiment 1); assay type: in vivo, rats; settings: for percentage variation of latency of pain sensation / M (10-90) ± SE, mean percentage variation of latency: compound 10 mg/kg i.p. + morphine 2 mg/kg; for M (10-90) ± SE, mean percentage variation of latency: mean 10-90 min; for Power ratio with respect to morphine alone: rat, in vivo
Protocol: Experiment No: 1 Increase in analgesia of analgesic-narcotic drugs in rats by the Tail Flick Test
The method is that described by Harris et al. (J. Pharmacol. Exp. Ther. 143 (1964) 141-148).
Male rats are used having a weight of about 150-200 g which have not fasted. A point on the tail is chosen and irradiated by a heat source (75° C.) and the time (in seconds) for which the animal remains without moving its tail is measured.
A maximum period of time of 8 seconds under the heat source is chosen, after which the animal is, in any case, removed to avoid tissue damage. The measurement is effected before (controls) and after treatment with the drugs.
The percentage variation is calculated for each individual animal by the following formula: [formula] The measurements were carried out 10, 20, 30, 45, 60 and 90 minutes after treatment with the analgesics.

[2] = tested on: activity of analgesic drugs; assay: Hot-plate test, potentiation of analgesic drugs (Experiment 2); assay type: in vivo, rats
Protocol: Experiment No. 2: Hot-plate test
The method is that described by Eddy et al. (J. Pharmac. Exp. Ther. 107, 385 (1953)).
Groups of five male rats having a weight of about 150 g, and which have not fasted, are used.
The animals are placed on a metal plate on the bottom of a transparent cylinder, which is heated to 55°±1° C. by an azeotropic boiling mixture (acetone-ethyl formate 1:1).
The reaction time is defined as the interval which passes between the moment at which the animal is placed on the hot-plate and the moment at which it either licks its feet or tries to jump out of the cylinder. The control reaction time is measured 10 and 5 minutes before administration of the drugs and 10, 20, 30, 45, 60 and 90 minutes afterwards. The animals are left on the plate for a maximum period of 30 seconds.
The response to the administration of the product is considered positive if at least a doubling of the normal reaction time is seen. The results obtained are given in Tables 2a and 2b which record the groups treated, the doses administered and the stay times on the plate expressed as the number of positive responses over the number treated.

Molecule	percentage variation of latency of pain sensation ([1]; 10') [%]	percentage variation of latency of pain sensation ([1]; 20') [%]	percentage variation of latency of pain sensation ([1]; 30') [%]	percentage variation of latency of pain sensation ([1]; 45') [%]	percentage variation of latency of pain sensation ([1]; 60') [%]	percentage variation of latency of pain sensation ([1]; 90') [%]	M (10-90) ± SE, mean percentage variation of latency [1] [%]	Power ratio with respect to morphine alone [1]	other results
CC(C)c1ccc(C(=O)NC(CCC(=O)O)C(=O)NC2CCCCC2)cc1 (centres unmarked) [Compound C-49]	62.1 ± 9	100.0 ± 0	97.6 ± 2	99.5 ± 0.5	99.2 ± 0.5	65.8 ± 0.8	87.4	2.93	
CCCN(CCC)C(=O)C(CCC(=O)O)NC(=O)c1ccc(CC(C)C)cc1 (centres unmarked) [Compound C-38]	53.8	85.7 ± 10	92.0 ± 8	99.1 ± 1	91.2 ± 9	51.1 ± 14	78.8	2.64	
CCCNC(=O)C(CCC(=O)O)NC(=O)c1ccc(C)c(C)c1 (centres unmarked) [Compound C-45]	57.2 ± 18	99.7 ± 0.3	95.7 ± 4	93.1 ± 7	77.7 ± 11	80.4	84.0 ± 16	2.82	
CC(=O)Oc1ccccc1C(=O)O [Acetyl Salicylic Acid, reference compound]									TOTAL positives ([2]; acetyl salicylic acid 100 mg/kg i.p. alone): 8 x/30; positive responses over number treated ([2]; acetyl salicylic acid 100 mg/kg i.p. alone, 10'): 1/5; positive responses over number treated ([2]; acetyl salicylic acid 100 mg/kg i.p. alone, 20'): 2/5; positive responses over number treated ([2]; acetyl salicylic acid 100 mg/kg i.p. alone, 30'): 2/5; positive responses over number treated ([2]; acetyl salicylic acid 100 mg/kg i.p. alone, 45'): 2/5; positive responses over number treated ([2]; acetyl salicylic acid 100 mg/kg i.p. alone, 60'): 0/5; positive responses over number treated ([2]; acetyl salicylic acid 100 mg/kg i.p. alone, 90'): 1/5
Propoxyphene [reference compound]									TOTAL positives ([2]; propoxyphene 10 mg/kg i.p. alone): 8 X/30; positive responses over number treated ([2]; propoxyphene 10 mg/kg i.p. alone, 10'): 1/5; positive responses over number treated ([2]; propoxyphene 10 mg/kg i.p. alone, 20'): 2/5; positive responses over number treated ([2]; propoxyphene 10 mg/kg i.p. alone, 30'): 2/5; positive responses over number treated ([2]; propoxyphene 10 mg/kg i.p. alone, 45'): 2/5; positive responses over number treated ([2]; propoxyphene 10 mg/kg i.p. alone, 60'): 1/5; positive responses over number treated ([2]; propoxyphene 10 mg/kg i.p. alone, 90'): 0/5; TOTAL positives ([2]; propoxyphene 15 mg/kg i.p. alone): 12 x/30; positive responses over number treated ([2]; propoxyphene 15 mg/kg i.p. alone, 10'): 2/5; positive responses over number treated ([2]; propoxyphene 15 mg/kg i.p. alone, 20'): 2/5; positive responses over number treated ([2]; propoxyphene 15 mg/kg i.p. alone, 30'): 3/5; positive responses over number treated ([2]; propoxyphene 15 mg/kg i.p. alone, 45'): 3/5; positive responses over number treated ([2]; propoxyphene 15 mg/kg i.p. alone, 60'): 1/5; positive responses over number treated ([2]; propoxyphene 15 mg/kg i.p. alone, 90'): 3/5
CCCNC(=O)CCC(NC(=O)c1ccc(C)c(C)c1)C(=O)O [Compound D-16]	29.7 ± 21	42.8 ± 18	40.1 ± 22	35.4 ± 18	33.3 ± 20	23.3	34.1 ± 17	1.14	
CCN(CC)C(=O)C(CCC(=O)O)NC(=O)c1ccc(C)c(C)c1 (centres unmarked) [Compound C-40]	43.8 ± 15	69.1	49.0 ± 23	85.6 ± 6	76.5 ± 17	61.5 ± 14	64.2 ± 16	2.15	
Cc1ccc(C(=O)NC(CCC(=O)O)C(=O)N2CCOCC2)cc1C (centres unmarked) [Compound C-51]	78.7 ± 18	82.8	90.5 ± 10	86.4 ± 14	65.6 ± 13	48.5 ± 10	75.4 ± 16	2.53	
CCCCNC(=O)C(CCC(=O)O)NC(=O)c1ccc(CC)cc1 (centres unmarked) [Compound C-43]	54.1 ± 17	44.4 ± 23	38.9 ± 26	36.8 ± 27	47.8 ± 23	22.5 ± 13	40.7 ± 11	1.36	
CCCCNC(=O)CCC(NC(=O)c1ccc(CC)cc1)C(=O)O [Compound D-13]	7.1 ± 8	32	62.5 ± 23	31.8 ± 21	48.5 ± 22	50.9 ± 14	38.8 ± 20	1.30	
CCCCNC(=O)CCC(NC(=O)c1ccc(CCC)cc1)C(=O)O [Compound D-14]	69.2 ± 14	93.4 ± 7	46.8 ± 15	71.3 ± 17	89.1 ± 9	60.3	71.1 ± 14	2.41	
Cc1ccc(C(=O)NC(CCC(=O)O)C(=O)N(C)C)cc1C (centres unmarked) [Compound C-50]	22.3 ± 13	68.9 ± 9	60.2 ± 19	49.4 ± 14	73.5 ± 15	24.7 ± 6	49.8 ± 22	1.67	
Cc1ccc(C(=O)NC(CCC(=O)O)C(=O)N2CCCCC2)cc1C (centres unmarked) [Compound C-52]	72.8 ± 15	95.8 ± 3	96.3 ± 4	85.5 ± 10	87.6	45.3 ± 6	80.6 ± 19	2.70	
CCCCN(CCCC)C(=O)C(CCC(=O)O)NC(=O)c1cccc(C)c1 (centres unmarked) [Compound C-53]	31.2 ± 15	46.7 ± 28	70.2 ± 23	76.9 ± 22	45.6 ± 27	12.6 ± 25	47.2 ± 24	1.58	
CCCCNC(=O)C(CCC(=O)O)NC(=O)c1ccc(CCC)cc1 (centres unmarked) [Compound C-44]	-1.6 ± 11	17.0 ± 6	24.9	26.9 ± 19	35.1 ± 17	39.8 ± 8	23.7 ± 15	0.79	
